Where “and” joins values, the source holds several entries; their conditions need not be identical. Equal entries are not always repeated.
Columns and labels:
[1] = system: PSMA-positive cell line, PIP PC3; experiment: In vitro cell uptake, PIP PC3 cells; type: cell-based
Protocol: To determine the cell uptakes of the [^177Lu] labelled ligands, 5×10^5 cells/well were grown in 12-well plates in 1 mL of medium for 48 h. The cells were washed twice with PBS, and 900 μL fresh media were added. […] All samples were prepared in triplicate. Following the incubation at 37° C., cells were washed twice to remove unbound activity and afterwards lysed in 1 mL of 0.5 M NaOH. Activity was measured in a gamma counter. Aliquots of the solution added to the cells were also measured for the calculation of the cellular uptake as % ID.

[2] = system: PC3-PIP (PSMA positive) and PC-3 tumors (PSMA negative); experiment: Biodistribution of 177Lu labeled compounds 4 and 7 in tumor bearing nude mice; type: in vivo, CD-1 male nude mice
Protocol: (§1) ^177Lu labeling: To 10 μg ligand (1 mg/mL DMSO) were added 15 μL of 2.0 N NaOAc, 400 μL 0.05 N HCl, and 20 μL ^177Lu-solution (780 μCi (Capintec setting 450 (reading×10)). The reaction was heated with a heating block at 95° C. for 1 hour in a 3 mL closed vial. After cooling, the sample was analyzed by HPLC (HPLC: Eclipse XDB-C18 150×4.6 mm, gradient, 1 mL/min; A: 0.1% TFA in water; B: 0.1% TFA in ACN: 0-4 min A/B 85/15%; 4-11 min: from 85/15 to 30/70%; 11-14 min: from 30/70% to 85/15%). Radiochemical purity of [^177Lu]4 (FIG. 2) and [^177Lu]7 was >98% and injected doses were stable at 48 hr after formulation.
(§2) For iv injection 150 μL of labeled solution was diluted with saline to 3.75mL. Mice were injected with 150 μL of formulated dose. Injected radioactivity was 100 μCi and PSMA ligand amount was constant at 0.72 nmole/mouse.
Biodistribution of [^68Ga]4, [^177Lu]4 and [^177Lu]7 was determined in nude mice bearing PIP PC3 (PSMA positive) and PC3 (PSMA negative) tumors on the left and right shoulder, respectively, over a period of 192 h (Table 3a, 3b and 3c). […] The uptake in PC3 tumors (PSMA negative) of both ligands, [^177Lu]4 and [^177Lu]7, was clearly much lower than those of PC-3 PIP tumors (PSMA positive).

[3] = Stability of injected doses after formulation; type: physicochemical; settings: at 48 hr after formulation
Protocol: ^68Ga labeling: To 15 nmole ligand 4 (1 mg/mL DMSO) were added 20 μL of 2.0 N NaOAc, 500 μL ^68Ga-solution (2.25 mCi). The reaction was heated in a heating block at 90° C. for 10 minutes in a 3 mL closed vial. After cooling, the sample was analyzed by HPLC (HPLC: Eclise XDB C18 150×4.6 mm, gradient, 2 mL/min; A: 0.1% TFA in water; B: 0.1% TFA in ACN: 0-2 min 100% A; 2-4 min: from 0% to 100% B; 4-9 min: 100% B; 9-10 min: from 100% to 0% B). Radiochemical purity of [^68Ga]4 was >99% RCP (FIG. 1) and injected doses were stable at 2 hr after formulation.
as §1, §2

[4] = system: PSMA-negative cell line, PC3; experiment: In vitro cell uptake, PC3 cells; type: cell-based; settings: PC3 (do not express PSMA), 60 min
Protocol: To determine the cell uptakes of the [^177Lu] labelled ligands, 5×10^5 cells/well were grown in 12-well plates in 1 mL of medium for 48 h. The cells were washed twice with PBS, and 900 μL fresh media were added. Radiolabelled ligand was added and the PSMA-inhibitor (2-PMPA) was applied in a final concentration of 10 μM to determine unspecific binding. All samples were prepared in triplicate. Following the incubation at 37° C., cells were washed twice to remove unbound activity and afterwards lysed in 1 mL of 0.5 M NaOH. Activity was measured in a gamma counter. Aliquots of the solution added to the cells were also measured for the calculation of the cellular uptake as % ID.

O=C(O)CC[C@H](NC(=O)N[C@@H](CCCCNC(=O)[C@H](Cc1ccccc1)NC(=O)COc1ccc(C[C@H](NC(=O)CNC(=O)CCC(C(=O)O)N2CCN(CC(=O)O)CCN(C(CCC(=O)NCCOCCOCCNC(=O)CCCc3ccc(I)cc3)C(=O)O)CCN(CC(=O)O)CC2)C(=O)O)cc1)C(=O)O)C(=O)O.[177Lu] (stereo partly shown) [[^177Lu]7]
In vitro cell uptake ([1]; PIP PC3, 5 min): 5.0 % ID per 5 × 10^5 cells
In vitro cell uptake ([1]; PIP PC3, 15 min): 7.8 % ID per 5 × 10^5 cells
In vitro cell uptake ([1]; PIP PC3, 30 min): 10.1 % ID per 5 × 10^5 cells
In vitro cell uptake ([1]; PIP PC3, 60 min): 11.4 % ID per 5 × 10^5 cells
In vitro cell uptake ([1]; PIP PC3, 60 min, with PSMA inhibitor (2-PMPA, 2 uM)): 1.3 % ID per 5 × 10^5 cells
In vitro cell uptake ([1]; PIP PC3, 120 min): 11.9 % ID per 5 × 10^5 cells
Biodistribution: Blood ([2]; 1 hr): 13.20 ± 3.17 % dose/g
Biodistribution: Bone ([2]; 1 hr): 1.78 ± 0.97 % dose/g
Biodistribution: Brain ([2]; 1 hr): 0.35 ± 0.04 % dose/g
Biodistribution: Heart ([2]; 1 hr): 3.79 ± 0.67 % dose/g
Biodistribution: Intestine ([2]; 1 hr): 1.89 ± 0.18 % dose/g
Biodistribution: Kidney ([2]; 1 hr): 37.38 ± 4.08 % dose/g
Biodistribution: Liver ([2]; 1 hr): 2.63 ± 0.69 % dose/g
Biodistribution: Lung ([2]; 1 hr): 5.89 ± 0.53 % dose/g
Biodistribution: Muscle ([2]; 1 hr): 1.88 ± 0.27 % dose/g
Biodistribution: PC3 tumor ([2]; 1 hr): 5.26 ± 1.63 % dose/g
Biodistribution: PIP PC3 tumor ([2]; 1 hr): 12.51 ± 0.94 % dose/g
Biodistribution: Pancreas ([2]; 1 hr): 1.71 ± 0.40 % dose/g
Biodistribution: Skin ([2]; 1 hr): 5.18 ± 1.59 % dose/g
Biodistribution: Spleen ([2]; 1 hr): 2.87 ± 0.82 % dose/g
Biodistribution: Stomach ([2]; 1 hr): 1.57 ± 0.39 % dose/g
Biodistribution: Blood ([2]; 4 hrs): 12.06 % dose/g and 12.06 ± 2.26 % dose/g
Biodistribution: Bone ([2]; 4 hrs): 2.05 ± 0.89 % dose/g
Biodistribution: Brain ([2]; 4 hrs): 0.37 ± 0.08 % dose/g
Biodistribution: Heart ([2]; 4 hrs): 3.96 ± 0.63 % dose/g
Biodistribution: Intestine ([2]; 4 hrs): 2.97 ± 1.71 % dose/g
Biodistribution: Kidney ([2]; 4 hrs): 60.07 ± 2.41 % dose/g
Biodistribution: Liver ([2]; 4 hrs): 2.92 ± 0.85 % dose/g
Biodistribution: Lung ([2]; 4 hrs): 6.07 ± 0.66 % dose/g
Biodistribution: Muscle ([2]; 4 hrs): 1.55 ± 0.84 % dose/g
Biodistribution: PC3 tumor ([2]; 4 hrs): 5.17 ± 1.02 % dose/g
Biodistribution: PIP PC3 tumor ([2]; 4 hrs): 35.34 ± 12.11 % dose/g
Biodistribution: Pancreas ([2]; 4 hrs): 2.08 ± 0.82 % dose/g
Biodistribution: Skin ([2]; 4 hrs): 5.85 ± 2.04 % dose/g
Biodistribution: Spleen ([2]; 4 hrs): 6.16 ± 2.81 % dose/g
Biodistribution: Stomach ([2]; 4 hrs): 1.86 ± 1.12 % dose/g
Biodistribution: Blood ([2]; 24 hrs (1 day)): 1.79 ± 0.98 % dose/g
Biodistribution: Bone ([2]; 24 hrs (1 day)): 0.33 ± 0.14 % dose/g
Biodistribution: Brain ([2]; 24 hrs (1 day)): 0.08 ± 0.04 % dose/g
Biodistribution: Heart ([2]; 24 hrs (1 day)): 0.73 ± 0.42 % dose/g
Biodistribution: Intestine ([2]; 24 hrs (1 day)): 0.41 ± 0.24 % dose/g
Biodistribution: Kidney ([2]; 24 hrs (1 day)): 18.51 ± 7.79 % dose/g
Biodistribution: Liver ([2]; 24 hrs (1 day)): 0.57 ± 0.27 % dose/g
Biodistribution: Lung ([2]; 24 hrs (1 day)): 1.33 ± 0.85 % dose/g
Biodistribution: Muscle ([2]; 24 hrs (1 day)): 0.36 ± 0.24 % dose/g
Biodistribution: PC3 tumor ([2]; 24 hrs (1 day)): 2.15 ± 0.69 % dose/g
Biodistribution: PIP PC3 tumor ([2]; 24 hrs (1 day)): 35.34±12.11 % dose/g and 34.36 ± 6.87 % dose/g
Biodistribution: Pancreas ([2]; 24 hrs (1 day)): 0.45 ± 0.30 % dose/g
Biodistribution: Skin ([2]; 24 hrs (1 day)): 1.37 ± 0.63 % dose/g
Biodistribution: Spleen ([2]; 24 hrs (1 day)): 0.75 ± 0.17 % dose/g
Biodistribution: Stomach ([2]; 24 hrs (1 day)): 0.36 ± 0.23 % dose/g
Biodistribution: Blood ([2]; 48 hrs (2 days)): 0.84 ± 0.25 % dose/g
Biodistribution: Bone ([2]; 48 hrs (2 days)): 0.19 ± 0.03 % dose/g
Biodistribution: Brain ([2]; 48 hrs (2 days)): 0.06 ± 0.01 % dose/g
Biodistribution: Heart ([2]; 48 hrs (2 days)): 0.59 ± 0.21 % dose/g
Biodistribution: Intestine ([2]; 48 hrs (2 days)): 0.23 ± 0.07 % dose/g
Biodistribution: Kidney ([2]; 48 hrs (2 days)): 16.13 ± 6.19 % dose/g
Biodistribution: Liver ([2]; 48 hrs (2 days)): 0.42 ± 0.08 % dose/g
Biodistribution: Lung ([2]; 48 hrs (2 days)): 0.93 ± 0.26 % dose/g
Biodistribution: Muscle ([2]; 48 hrs (2 days)): 0.22 ± 0.07 % dose/g
Biodistribution: PC3 tumor ([2]; 48 hrs (2 days)): 1.77 ± 0.55 % dose/g
Biodistribution: PIP PC3 tumor ([2]; 48 hrs (2 days)): 41.80 ± 10.71 % dose/g
Biodistribution: Pancreas ([2]; 48 hrs (2 days)): 0.39 ± 0.18 % dose/g
Biodistribution: Skin ([2]; 48 hrs (2 days)): 0.63 ± 0.03 % dose/g
Biodistribution: Spleen ([2]; 48 hrs (2 days)): 1.27 ± 1.12 % dose/g
Biodistribution: Stomach ([2]; 48 hrs (2 days)): 0.18 ± 0.02 % dose/g
Biodistribution: Blood ([2]; 96 hrs (4 days)): 0.11 ± 0.10 % dose/g
Biodistribution: Bone ([2]; 96 hrs (4 days)): 0.11 ± 0.01 % dose/g
Biodistribution: Brain ([2]; 96 hrs (4 days)): 0.02 ± 0.01 % dose/g
Biodistribution: Heart ([2]; 96 hrs (4 days)): 0.30 ± 0.23 % dose/g
Biodistribution: Intestine ([2]; 96 hrs (4 days)): 0.19 ± 0.18 % dose/g
Biodistribution: Kidney ([2]; 96 hrs (4 days)): 4.28 ± 2.61 % dose/g
Biodistribution: Liver ([2]; 96 hrs (4 days)): 0.22 ± 0.09 % dose/g
Biodistribution: Lung ([2]; 96 hrs (4 days)): 0.31 ± 0.22 % dose/g
Biodistribution: Muscle ([2]; 96 hrs (4 days)): 0.18 ± 0.12 % dose/g
Biodistribution: PC3 tumor ([2]; 96 hrs (4 days)): 0.97 ± 0.56 % dose/g
Biodistribution: PIP PC3 tumor ([2]; 96 hrs (4 days)): 24.23 ± 13.09 % dose/g
Biodistribution: Pancreas ([2]; 96 hrs (4 days)): 0.09 ± 0.06 % dose/g
Biodistribution: Skin ([2]; 96 hrs (4 days)): 0.46 ± 0.22 % dose/g
Biodistribution: Spleen ([2]; 96 hrs (4 days)): 0.52 ± 0.30 % dose/g
Biodistribution: Stomach ([2]; 96 hrs (4 days)): 0.09 ± 0.06 % dose/g
Biodistribution: Blood ([2]; 192 hrs (8 days)): 0.01 ± 0.00 % dose/g
Biodistribution: Bone ([2]; 192 hrs (8 days)): 0.09 ± 0.01 % dose/g
Biodistribution: Brain ([2]; 192 hrs (8 days)): 0.01 ± 0.00 % dose/g
Biodistribution: Heart ([2]; 192 hrs (8 days)): 0.07 ± 0.01 % dose/g
Biodistribution: Intestine ([2]; 192 hrs (8 days)): 0.12 ± 0.05 % dose/g
Biodistribution: Kidney ([2]; 192 hrs (8 days)): 1.58 ± 0.43 % dose/g
Biodistribution: Liver ([2]; 192 hrs (8 days)): 0.12 ± 0.02 % dose/g
Biodistribution: Lung ([2]; 192 hrs (8 days)): 0.09 ± 0.02 % dose/g
Biodistribution: Muscle ([2]; 192 hrs (8 days)): 0.03 ± 0.00 % dose/g
Biodistribution: PC3 tumor ([2]; 192 hrs (8 days)): 0.35 ± 0.03 % dose/g
Biodistribution: PIP PC3 tumor ([2]; 192 hrs (8 days)): 13.14 ± 2.57 % dose/g
Biodistribution: Pancreas ([2]; 192 hrs (8 days)): 0.03 ± 0.00 % dose/g
Biodistribution: Skin ([2]; 192 hrs (8 days)): 0.16 ± 0.03 % dose/g
Biodistribution: Spleen ([2]; 192 hrs (8 days)): 0.30 ± 0.07 % dose/g
Biodistribution: Stomach ([2]; 192 hrs (8 days)): 0.10 ± 0.09 % dose/g
Time of highest uptake in PIP PC3 tumors ([2]; mouse, in vivo): 48 h
Uptake in PC3 tumors (PSMA negative) versus PC-3 PIP tumors (PSMA positive) ([2]; mouse, in vivo): much lower
Stability of injected doses [3]: stable
In vitro cell uptake [4]: 0.7 % ID per 5 × 10^5 cells
